Consider nine compounds from ChEMBL document CHEMBL1125940 (Bioorg Med Chem Lett, 1991).

Structures are written as SMILES. Positions of bridges follow the written chain, without caps; N, C: chain ends. Residues, ends and D or L forms follow the SMILES beside them.

The test is filed under the species Oryctolagus cuniculus. Kind of test: Percent of endothelin-1 induced contraction of carotid arteries isolated from New Zealand white rabbits, tested at 1 uM concentration of compound. It is filed as functional.
As to `CC[C@H](C)[C@H](NC(=O)[C@H](CC(=O)O)NC(=O)[C@H](CC(C)C)NC(=O)[C@H](Cc1c[nH]cn1)NC(=O)[C@@H]1CSSC[C@H](NC(C)=O)C(=O)N[C@@H](CO)C(=O)N[C@H]2CSSC[C@H](NC(=O)[C@H](CCC(=O)O)NC(=O)[C@H](CCCCN)NC(=O)[C@H](CC(=O)O)NC(=O)[C@H](CCSC)NC(=O)[C@H](CC(C)C)NC(=O)[C@H](CO)NC(=O)[C@H](CO)NC2=O)C(=O)N[C@@H](C(C)C)C(=O)N[C@@H](Cc2ccc(O)cc2)C(=O)N[C@@H](Cc2ccccc2)C(=O)N1)C(=O)N[C@H](C(=O)N[C@@H](Cc1c[nH]c2ccccc12)C(=O)O)[C@@H](C)CC`, the Contraction was 36%.

As for `CC[C@H](C)[C@H](NC(=O)[C@H](CC(=O)O)NC(=O)[C@H](CC(C)C)NC(=O)[C@H](Cc1c[nH]cn1)NC(=O)[C@@H]1CSSC[C@H](N)C(=O)N[C@@H](CO)C(=O)N[C@H]2CSSC[C@H](NC(=O)[C@H](CCC(=O)O)NC(=O)[C@H](CCCCN)NC(=O)[C@H](CC(=O)O)NC(=O)[C@H](CCSC)NC(=O)[C@H](CC(C)C)NC(=O)[C@H](CO)NC(=O)[C@H](CO)NC2=O)C(=O)N[C@@H](C(C)C)C(=O)N[C@@H](Cc2ccc(O)cc2)C(=O)N[C@@H](Cc2ccccc2)C(=O)N1)C(=O)N[C@H](C(=O)N[C@@H](C)C(=O)O)[C@@H](C)CC` (H-CSCSSLMDKECVYFCHLDIIA-OH; disulfide 1-15, 3-11), the Contraction is on record as 0%.

Compound `CC[C@H](C)[C@H](NC(=O)[C@H](C)NC(=O)[C@H](CC(C)C)NC(=O)[C@H](Cc1c[nH]cn1)NC(=O)[C@@H]1CSSC[C@H](N)C(=O)N[C@@H](CO)C(=O)N[C@H]2CSSC[C@H](NC(=O)[C@H](CCC(=O)O)NC(=O)[C@H](CCCCN)NC(=O)[C@H](CC(=O)O)NC(=O)[C@H](CCSC)NC(=O)[C@H](CC(C)C)NC(=O)[C@H](CO)NC(=O)[C@H](CO)NC2=O)C(=O)N[C@@H](C(C)C)C(=O)N[C@@H](Cc2ccc(O)cc2)C(=O)N[C@@H](Cc2ccccc2)C(=O)N1)C(=O)N[C@H](C(=O)N[C@@H](Cc1c[nH]c2ccccc12)C(=O)O)[C@@H](C)CC` (H-CSCSSLMDKECVYFCHLAIIW-OH; disulfide 1-15, 3-11) gave a Contraction of 0%.

`CC[C@H](C)[C@H](NC(=O)[C@H](CC(=O)O)NC(=O)[C@H](C)NC(=O)[C@H](Cc1c[nH]cn1)NC(=O)[C@@H]1CSSC[C@H](N)C(=O)N[C@@H](CO)C(=O)N[C@H]2CSSC[C@H](NC(=O)[C@H](CCC(=O)O)NC(=O)[C@H](CCCCN)NC(=O)[C@H](CC(=O)O)NC(=O)[C@H](CCSC)NC(=O)[C@H](CC(C)C)NC(=O)[C@H](CO)NC(=O)[C@H](CO)NC2=O)C(=O)N[C@@H](C(C)C)C(=O)N[C@@H](Cc2ccc(O)cc2)C(=O)N[C@@H](Cc2ccccc2)C(=O)N1)C(=O)N[C@H](C(=O)N[C@@H](Cc1c[nH]c2ccccc12)C(=O)O)[C@@H](C)CC` (H-CSCSSLMDKECVYFCHADIIW-OH; disulfide 1-15, 3-11): the Contraction was found to be 0%.

`CSCC[C@@H]1NC(=O)[C@H](CC(C)C)NC(=O)[C@H](CO)NC(=O)[C@H](CO)NC(=O)[C@@H]2CSSC[C@H](NC(=O)[C@H](CCC(=O)O)NC(=O)[C@H](CCCCN)NC(=O)[C@H](CC(=O)O)NC1=O)C(=O)N[C@@H](C(C)C)C(=O)N[C@@H](Cc1ccc(O)cc1)C(=O)N[C@@H](Cc1ccccc1)C(=O)N[C@H](C(=O)N[C@@H](Cc1c[nH]cn1)C(=O)N[C@@H](CC(C)C)C(=O)N[C@@H](CC(=O)O)C(=O)N[C@@H](C)C(=O)N[C@@H](C)C(=O)N[C@@H](Cc1c[nH]c3ccccc13)C(=O)O)CSSC[C@H](N)C(=O)N[C@@H](CO)C(=O)N2` (H-CSCSSLMDKECVYFCHLDAAW-OH; disulfide 1-15, 3-11) had a Contraction of 50%.

For the compound `CC[C@H](C)[C@H](NC(=O)[C@H](CC(=O)O)NC(=O)[C@H](CC(C)C)NC(=O)[C@H](Cc1c[nH]cn1)NC(=O)[C@@H]1CSSC[C@H](N)C(=O)N[C@@H](CO)C(=O)N[C@H]2CSSC[C@H](NC(=O)[C@H](CCC(=O)O)NC(=O)[C@H](CCCCN)NC(=O)[C@H](CC(=O)O)NC(=O)[C@H](CCSC)NC(=O)[C@H](CC(C)C)NC(=O)[C@H](CO)NC(=O)[C@H](CO)NC2=O)C(=O)N[C@@H](C(C)C)C(=O)N[C@@H](Cc2ccc(O)cc2)C(=O)N[C@@H](Cc2ccccc2)C(=O)N1)C(=O)N[C@@H](C)C(=O)N[C@@H](Cc1c[nH]c2ccccc12)C(=O)O` (H-CSCSSLMDKECVYFCHLDIAW-OH; disulfide 1-15, 3-11), the Contraction worked out at 37%.

On to `CC[C@H](C)[C@H](NC(=O)[C@H](CC(=O)O)NC(=O)[C@H](CC(C)C)NC(=O)[C@H](Cc1c[nH]cn1)NC(=O)[C@@H]1CSSC[C@H](N)C(=O)N[C@@H](CO)C(=O)N[C@H]2CSSC[C@H](NC(=O)[C@H](CCC(=O)O)NC(=O)[C@H](CCCCN)NC(=O)[C@H](CC(=O)O)NC(=O)[C@H](CCSC)NC(=O)[C@H](CC(C)C)NC(=O)[C@H](CO)NC(=O)[C@H](CO)NC2=O)C(=O)N[C@@H](C(C)C)C(=O)N[C@@H](Cc2ccc(O)cc2)C(=O)N[C@@H](C)C(=O)N1)C(=O)N[C@H](C(=O)N[C@@H](Cc1c[nH]c2ccccc12)C(=O)O)[C@@H](C)CC` (H-CSCSSLMDKECVYACHLDIIW-OH; disulfide 1-15, 3-11), for which the Contraction is recorded as 6%.

`CC[C@H](C)[C@H](NC(=O)[C@H](CC(=O)O)NC(=O)[C@H](CC(C)C)NC(=O)[C@H](Cc1c[nH]cn1)NC(=O)[C@@H]1CSSC[C@H](N)C(=O)N[C@@H](CO)C(=O)N[C@H]2CSSC[C@H](NC(=O)[C@H](CCC(=O)O)NC(=O)[C@H](CCCCN)NC(=O)[C@H](C)NC(=O)[C@H](CCSC)NC(=O)[C@H](CC(C)C)NC(=O)[C@H](CO)NC(=O)[C@H](CO)NC2=O)C(=O)N[C@@H](C(C)C)C(=O)N[C@@H](Cc2ccc(O)cc2)C(=O)N[C@@H](Cc2ccccc2)C(=O)N1)C(=O)N[C@H](C(=O)N[C@@H](Cc1c[nH]c2ccccc12)C(=O)O)[C@@H](C)CC` (H-CSCSSLMAKECVYFCHLDIIW-OH; disulfide 1-15, 3-11) had a Contraction of 60%.

In turn, `CC[C@H](C)[C@H](NC(=O)[C@H](CC(=O)O)NC(=O)[C@H](CC(C)C)NC(=O)[C@H](Cc1c[nH]cn1)NC(=O)[C@@H]1CSSC[C@H](N)C(=O)N[C@@H](CO)C(=O)N[C@H]2CSSC[C@H](NC(=O)[C@H](C)NC(=O)[C@H](CCCCN)NC(=O)[C@H](CC(=O)O)NC(=O)[C@H](CCSC)NC(=O)[C@H](CC(C)C)NC(=O)[C@H](CO)NC(=O)[C@H](CO)NC2=O)C(=O)N[C@@H](C(C)C)C(=O)N[C@@H](Cc2ccc(O)cc2)C(=O)N[C@@H](Cc2ccccc2)C(=O)N1)C(=O)N[C@H](C(=O)N[C@@H](Cc1c[nH]c2ccccc12)C(=O)O)[C@@H](C)CC` (H-CSCSSLMDKACVYFCHLDIIW-OH; disulfide 1-15, 3-11) showed a Contraction of 7%.
